These results are taken from patent US4704403A, “3-(2,2,2-trisubstituted hydrazinium) propionates” (priority 1983, dated 1987).

A value given as a limit tells only on which side of the number the result lay.

Series [1] in a line: Acute toxicity upon intraperitoneal administration to white mice. The series is classed as in vivo. Particulars: mouse, in vivo, ip, 14 days observation, average values with confidential limits at P=0.05. As for the experimental part: (§1) The acute toxicity of the compounds according to the present invention was studied on white mice of both sexes with a mass of 20-25 g. A saturated aqueous solution of the compounds or a suspension in Tween-80 was administered to the animals intraperitoneally. The observation over the animals was carried out for 14 days. The results obtained were processed following the Litchfield-Wilkoxon method. As it follows from the data shown in Table 5 hereinbelow, the studied compounds have a very low acute toxicity, thus providing a large spectrum of the therapeutic effect.

Series [2] deals with white mice. Described as above. The format is in vivo. Conditions: i.p. How it is done:
as §1

The subject of series [3] is arrhythmia caused by introduction of calcium chloride. The series can be described thus: Antiarrhythmic activity on the model of arrhythmia caused by calcium chloride (antagonism towards calcium). The format is in vivo, mice. Conditions: for Dose of calcium chloride causing arrhythmia: control 85.0; for Dose of calcium chloride causing heart arrest: control 100.0.
Method: In experiments on white mice with a mass of 18-25 g narcotized with urethane an electrocardiogram was recorded in the second standard lead. A 2% solution of calcium chloride was introduced into the tail vein at a constant rate (0.01 ml for 2 seconds). The dose of calcium chloride causing arrhythmia and the dose causing heart arrest were determined. In experimental groups the test compounds were administered 20-40 minutes prior to the beginning of the experiment intraperitoneally.
For series [4], the system named is hypertensive male rats of the Akamoto-Aoki line. The series can be described thus: Variation of arterial pressure upon intraperitoneal administration to hypertensive rats. The format is in vivo. How it is done: The study of hypotensive properties of the compounds of this invention has been carried out of hypertensive male rats of the Akamoto-Aoki line aged 25-30 weeks. The animals were divided into groups (7-10 rats in each) and for 2 weeks before the beginning of the experiment they were subjected to an every-day training for adaptation to the unit for measurements of the arterial pressure. The systolic and diastolic arterial pressure were measured indirectly on the tail artery. The level of the arterial pressure prior to administration of the test compounds was measured by way of a triple determination thereof--2 days, one day and right before the administration of the preparation. The compounds were administered intraperitoneally in the form of a 2.5% aqueous solution or a 2.5% suspension in Twin-80 in the dose of 50 mg/kg. The measurement of the arterial pressure was effected 30 minutes, 1, 2, 3 and 4 hours and in some cases 24 hours after the administration of the preparation. For a number of compounds featuring a high efficiency, also determined was the dose causing reduction of the arterial pressure by 30% as compared with the starting level (ED30). The statistical processing of the data obtained was carried out using the Student certainty criterion.

The subject of series [5] is spontaneously hypertensive rats of the Akamoto-Aoki line. The series can be described thus: Systolic arterial pressure of spontaneously hypertensive rats upon a repeated peroral administration. The format is in vivo. As for the experimental part:
Thus, after a four-days course of administration (once a day, per os) of the compounds according to the present invention an essential reduction of the arterial pressure in the test animals is observed which is not returned to the initial level even an expiration of four days after discontinuation of the preparation administration, whereas the hypotensive effect of nifedipine is manifested for only 8 hours.

[6] abbreviates: 30 minutes, 50 mg/kg i.p. (nifedipine 1 mg/kg i.p.).
[7] abbreviates: 1 hour, 50 mg/kg i.p. (nifedipine 1 mg/kg i.p.).
Setting [8] is: 2 hours, 50 mg/kg i.p. (nifedipine 1 mg/kg i.p.).
Where [9] appears, read: 4 hours, 50 mg/kg i.p. (nifedipine 1 mg/kg i.p.).
Where [10] appears, read: after four-days p.o. course, benzyl 40 mg/kg, allyl 50 mg/kg, nifedipine dose not given.
The mark [11] stands for this setting: p.o. once a day, benzyl 40 mg/kg, allyl 50 mg/kg, nifedipine dose not given.
[12] abbreviates: p.o., benzyl 40 mg/kg, allyl 50 mg/kg, nifedipine dose not given.

As usually defined, the LD50 is the dose at which mortality reaches 50%. Read a low LD50 as greater toxicity. The compound `CC[N+](CC)(CC)NCCC(=O)[O-]` [3-(2,2,2-Triethylhydrazinium)propionate, 3-(2,2,2-triethylhydrazinium)propionate monohydrate] displayed a median lethal dose (LD50) at 336 h in series [1] greater than 3000 mg/kg. For the same compound, in series [2], the “Relative toxicity with respect to quinidine (LD50 / LD50 of quinidine)” value (“Relative toxicity … (LD50 / LD50 of quinidine)” below) was “above 19.2”. Further, the results for the “Dose of calcium chloride causing arrhythmia” value in series [3] (compound dose 5 mg/kg i.p.) and in series [3] (compound dose 15 mg/kg i.p.) were 100.0 and 127.0, respectively. The “Dose of calcium chloride causing heart arrest” value in series [3] (compound dose 5 mg/kg i.p.) turned out to be 120.0; in series [3] (compound dose 15 mg/kg i.p.), 142.5.
Turning to `C[N+](C)(CC[N+](C)(C)NCCC(=O)[O-])NCCC(=O)[O-]` [3-(2,2-dimethyl-2-[1',1'-dimethyl-2'-carboxylatoethylhydrazin-1'-ium]-ethylhydrazinium)propionate dihydrate], the 50% lethal dose (LD50) at 336 h in series [1] is 2100 mg/kg. Moreover, in series [2], the “Relative toxicity … (LD50 / LD50 of quinidine)” value is recorded as 13.4. The “Dose of calcium chloride causing arrhythmia” value stood at 96.0 in series [3] (compound dose 5 mg/kg i.p.) and 108.5 in series [3] (compound dose 15 mg/kg i.p.). For the same compound, the “Dose of calcium chloride causing heart arrest” value in series [3] (compound dose 5 mg/kg i.p.) was found to be 112.0; in series [3] (compound dose 15 mg/kg i.p.) it was 120.0.
Turning to `C[N+](C)(Cc1cccc2ccccc12)NCCC(=O)[O-]` [3-(2,2-dimethyl-2-naphthylmethylhydrazinium)propionate], the “Average variation of the diastolic arterial pressure” value was 0 % of the initial in series [4] (setting [6]); -3 % of the initial in series [4] (setting [7]); -2 % of the initial in series [4] (setting [8]); -14 % of the initial in series [4] (setting [9]); -7 % of the initial in series [4] (24 hours, 50 mg/kg i.p.). Further, the “Average variation of the systolic arterial pressure” value in series [4] (setting [6]) is 0 % of the initial; in series [4] (setting [7]), 0 % of the initial; in series [4] (setting [8]), -3 % of the initial; in series [4] (setting [9]), -5 % of the initial; in series [4] (24 hours, 50 mg/kg i.p.) it was -4 % of the initial. The LD50 at 336 h in series [1] was greater than 3000 mg/kg. Besides, the “Relative toxicity … (LD50 / LD50 of quinidine)” value in series [2] is recorded as “above 19.2”. The “Dose of calcium chloride causing arrhythmia” value in series [3] (compound dose 5 mg/kg i.p.) amounted to 108.0; in series [3] (compound dose 15 mg/kg i.p.), 126.7. Moreover, the “Dose of calcium chloride causing heart arrest” value in series [3] (compound dose 5 mg/kg i.p.) is listed as 132.5; in series [3] (compound dose 15 mg/kg i.p.) it was 143.0.
Regarding `C#CC[N+](C)(C)NCCC(=O)[O-]` [3-(2,2-dimethyl-2-propargylhydrazinium)propionate hydrogen bromide], the “Average variation of the diastolic arterial pressure” value is -17 % of the initial in series [4] (setting [6]), -16 % of the initial in series [4] (setting [7]), -7 % of the initial in series [4] (setting [8]) and -10 % of the initial in series [4] (setting [9]). The “Average variation of the systolic arterial pressure” value in series [4] (setting [6]) is on record as -6 % of the initial; in series [4] (setting [7]), -10 % of the initial; in series [4] (setting [8]) it was -10 % of the initial; in series [4] (setting [9]), -6 % of the initial. The compound further yielded an LD50 at 336 h in series [1] of 1650 mg/kg. The “Relative toxicity … (LD50 / LD50 of quinidine)” value in series [2] was determined as 10.5. Moreover, the “Dose of calcium chloride causing arrhythmia” value was 110.4 in series [3] (compound dose 5 mg/kg i.p.) and 120.0 in series [3] (compound dose 15 mg/kg i.p.). Also, the “Dose of calcium chloride causing heart arrest” value in series [3] (compound dose 5 mg/kg i.p.) is reported as 125.0; in series [3] (compound dose 15 mg/kg i.p.), 135.0.
The compound `CCC[N+](C)(C)NCCC(=O)[O-]` [3-(2,2-dimethyl-2-propylhydrazinium)propionate] yielded an LD50 at 336 h in series [1] of 1800 mg/kg. Further, the “Relative toxicity … (LD50 / LD50 of quinidine)” value in series [2] is listed as 11.5. Moreover, the entries for the “Dose of calcium chloride causing arrhythmia” value in series [3] (compound dose 5 mg/kg i.p.) and in series [3] (compound dose 15 mg/kg i.p.) were 112.5 and 125.3, respectively. Besides, the entries for the “Dose of calcium chloride causing heart arrest” value in series [3] (compound dose 5 mg/kg i.p.) and in series [3] (compound dose 15 mg/kg i.p.) were 123.0 and 140.5, respectively.
Regarding `CC[N+](C)(CC)NCCC(=O)[O-]` [3-(2-methyl-2,2-diethylhydrazinium)propionate monohydrate], the “Average variation of the diastolic arterial pressure” value is listed as “+10 % of the initial” in series [4] (setting [6]), -4 % of the initial in series [4] (setting [7]), “+1 % of the initial” in series [4] (setting [8]) and -8 % of the initial in series [4] (setting [9]). In addition, the “Average variation of the systolic arterial pressure” value is recorded as “+4 % of the initial” in series [4] (setting [6]), “+2 % of the initial” in series [4] (setting [7]), 0 % of the initial in series [4] (setting [8]) and -6 % of the initial in series [4] (setting [9]). Besides, in series [1], the LD50 at 336 h is 1450 mg/kg. Further, the “Relative toxicity … (LD50 / LD50 of quinidine)” value in series [2] amounted to 9.3. Besides, the figures for the “Dose of calcium chloride causing arrhythmia” value in series [3] (compound dose 5 mg/kg i.p.) and in series [3] (compound dose 15 mg/kg i.p.) were 105.5 and 120.0, respectively. Also, the “Dose of calcium chloride causing heart arrest” value came to 118.6 in series [3] (compound dose 5 mg/kg i.p.) and 136.0 in series [3] (compound dose 15 mg/kg i.p.).
Consider `COC(=O)C1=C(C)NC(C)=C(C(=O)OC)C1c1ccccc1[N+](=O)[O-]` [Nifedipine, reference compound], for which, in series [4] (setting [6]), the “Average variation of the diastolic arterial pressure” value is -8 % of the initial and the “Average variation of the systolic arterial pressure” value is -4 % of the initial. Moreover, in series [4] (setting [7]), the “Average variation of the diastolic arterial pressure” value is reported as -14 % of the initial and the “Average variation of the systolic arterial pressure” value was -12 % of the initial. Besides, in series [4] (setting [8]), the “Average variation of the diastolic arterial pressure” value was -21 % of the initial and the “Average variation of the systolic arterial pressure” value is -8 % of the initial. Also, in series [4] (setting [9]), the “Average variation of the diastolic arterial pressure” value was -31 % of the initial and the “Average variation of the systolic arterial pressure” value is given as -11 % of the initial. Also, in series [5] (setting [10]), the “Systolic arterial pressure, 5th day” value worked out at 178 mm Hg; the “Systolic arterial pressure, 8th day” value came out at 186 mm Hg; the “Systolic arterial pressure, 10th day” value is given as 182 mm Hg. In addition, in series [5] (p.o. once a day, allyl 50 mg/kg, nifedipine dose not given), the “Systolic arterial pressure, 2nd day after administration” value stood at 148 mm Hg. In addition, the “Systolic arterial pressure, 1st day after administration” value in series [5] (p.o. once a day, benzyl 40 mg/kg (initial 195.8), allyl 50 mg/kg (initial 176.6), nifedipine dose not given (initial 184.0)) turned out to be 150.0 mm Hg. Moreover, in series [5] (setting [11]), the “Systolic arterial pressure, 2nd day before administration” value came out at 186 mm Hg; the “Systolic arterial pressure, 3rd day after administration” value came out at 153 mm Hg; the “Systolic arterial pressure, 4th day after administration” value is recorded as 146 mm Hg; the “Systolic arterial pressure, 4th day before administration” value is reported as 180 mm Hg. The “Systolic arterial pressure, 3rd day before administration” value in series [5] (p.o. once a day, benzyl 40 mg/kg, nifedipine dose not given) was 183 mm Hg. Also, the “Percent in parentheses (change of systolic pressure from initial), 2nd day after administration” value in series [5] (p.o., allyl 50 mg/kg, nifedipine dose not given) came to 20%. In series [5] (setting [12]), the “Percent in parentheses (change of systolic pressure from initial), 1st day after administration” value came to 18%; the “Percent in parentheses (change of systolic pressure from initial), 3rd day after administration” value is listed as 17%; the “Percent in parentheses (change of systolic pressure from initial), 4th day after administration” value was 21%; the “Percent in parentheses (change of systolic pressure from initial), 4th day before administration” value came out at 2%. Further, the “Percent in parentheses (change of systolic pressure from initial), 5th day” value in series [5] (setting [12]) is on record as 3%. In addition, the “duration of hypotensive effect” value in series [5] (repeated p.o.) worked out at 8 h.
In turn, `C=C[C@H]1C[N@@]2CC[C@H]1C[C@@H]2[C@@H](O)c1ccnc2ccc(OC)cc12` [Quinidine, reference compound] gave an LD50 at 336 h in series [1] of 156 mg/kg. For the same compound, the “Relative toxicity … (LD50 / LD50 of quinidine)” value in series [2] is 1. Moreover, in series [3] (compound dose 3 mg/kg i.p.), the “Dose of calcium chloride causing arrhythmia” value worked out at 126.9 and the “Dose of calcium chloride causing heart arrest” value is on record as 136.0. Further, in series [3] (compound dose 10 mg/kg i.p.), the “Dose of calcium chloride causing arrhythmia” value stood at 120.8 and the “Dose of calcium chloride causing heart arrest” value amounted to 133.5.
